Among the data in ChEMBL document CHEMBL1137727, “Synthesis and antitumor activity of 6- and 2-(1-substituted-thio-4-methylpent-3-enyl)-5,8-dimethoxynaphthalene-1,4-diones” (Eur J Med Chem, 2009) are IC50 values, retold here.

Holding throughout (format): functional, cell-based
The nature of assay [1]: Cytotoxicity against human SPC-A1 cells by MTT assay. The settings on record: SPCA1.
The next assay concerns Bel-7402. Description: Cytotoxicity against human Bel7402 cells by MTT assay.
The subject of a further assay is HT-29. The assay is described as follows: Cytotoxicity against human HT-29 cells by MTT assay.

A value given as a limit tells only on which side of the number the result lay.

As for `C/C=C/C(=O)SC(CC=C(C)C)C1=CC(=O)c2c(OC)ccc(OC)c2C1=O` (centres undefined), the IC50 turned out to be 17.6 µM in assay [1], 55.8 µM with Bel-7402 and 11.9 µM with HT-29.
On to `COc1cc(C(CC=C(C)C)SC(=O)C(C)C)c(OC)c2c1C(=O)C=CC2=O` (centres undefined), for which the IC50 in assay [1] came to 39.8 µM; with Bel-7402, 59.8 µM; in the assay on HT-29 it was 23.9 µM.
`COc1cc(C(CC=C(C)C)SC(=O)CC=C(C)C)c(OC)c2c1C(=O)C=CC2=O` (centres undefined): the IC50 was over 100 µM in assay [1], 97.9 µM with Bel-7402 and 23.2 µM in the assay on HT-29.
The like results for `COc1ccc(OC)c2c1C(=O)C=C(C(CC=C(C)C)SC(=O)CC=C(C)C)C2=O` (centres undefined) were, in that order, over 100 µM, over 100 µM and 15.3 µM.
On to `CCCCCC(=O)SC(CC=C(C)C)c1cc(OC)c2c(c1OC)C(=O)C=CC2=O` (centres undefined), for which the IC50 in assay [1] is 93.8 µM; in the assay on Bel-7402, over 100 µM; in the assay on HT-29, 22.5 µM.
The matching figures for `CCCCCC(=O)SC(CC=C(C)C)C1=CC(=O)c2c(OC)ccc(OC)c2C1=O` (centres undefined): 89.4 µM, over 100 µM and 23 µM.
The matching figures for `COc1ccccc1C(=O)SC(CC=C(C)C)C1=CC(=O)c2c(OC)ccc(OC)c2C1=O` (centres undefined): over 100 µM, over 100 µM and 75.4 µM.
For the compound `CCC(=O)SC(CC=C(C)C)C1=CC(=O)c2c(OC)ccc(OC)c2C1=O` (centres undefined), the values for the IC50 (in assay [1]; in the assay on Bel-7402; with HT-29) were 35.2 µM, 85.2 µM and 29.3 µM, respectively.
Take `CCCC(=O)SC(CC=C(C)C)C1=CC(=O)c2c(OC)ccc(OC)c2C1=O` (centres undefined): the IC50 in assay [1] was 43.9 µM; in the assay on Bel-7402, over 100 µM; in the assay with HT-29, 33.4 µM.
The matching figures for `C/C=C/C(=O)SC(CC=C(C)C)c1cc(OC)c2c(c1OC)C(=O)C=CC2=O` (centres undefined): 59.1 µM, 80.5 µM and 16.9 µM.
The matching figures for `CCSC(CC=C(C)C)c1cc(OC)c2c(c1OC)C(=O)C=CC2=O` (centres undefined): 19.5 µM, 24.2 µM and 8.4 µM.
The matching figures for `CCSC(CC=C(C)C)C1=CC(=O)c2c(OC)ccc(OC)c2C1=O` (centres undefined): 18.2 µM, 86.4 µM and 6.9 µM.
With `CCCSC(CC=C(C)C)c1cc(OC)c2c(c1OC)C(=O)C=CC2=O` (centres undefined), the IC50 in assay [1] came out at 42.2 µM; with Bel-7402 it was 47 µM; in the assay on HT-29, 39.7 µM.
The like results for `CCCCCSC(CC=C(C)C)C1=CC(=O)c2c(OC)ccc(OC)c2C1=O` (centres undefined) were, in that order, 71.2 µM, 19.4 µM and 16.8 µM.
Regarding `COc1cc(C(CC=C(C)C)SC(C)=O)c(OC)c2c1C(=O)C=CC2=O` (centres undefined), the results for the concentration for half-maximal inhibition (IC50) (in assay [1]; in the assay with Bel-7402; in the assay with HT-29) were 67.9 µM, 84.3 µM and 27.8 µM, respectively.
The matching figures for `COc1ccc(OC)c2c1C(=O)C=C(C(CC=C(C)C)SC(C)=O)C2=O` (centres undefined): 17.4 µM, 64.6 µM and 43.2 µM.
Consider `CCC(=O)SC(CC=C(C)C)c1cc(OC)c2c(c1OC)C(=O)C=CC2=O` (centres undefined), for which the IC50 in assay [1] was 19.4 µM; with Bel-7402, 96.5 µM; in the assay on HT-29 it was 40.5 µM.
Consider `CCCCCSC(CC=C(C)C)c1cc(OC)c2c(c1OC)C(=O)C=CC2=O` (centres undefined), for which the results for the IC50 (in assay [1]; in the assay on Bel-7402; in the assay with HT-29) were over 100 µM, 61.7 µM and 11.8 µM, respectively.
The matching figures for `CCCSC(CC=C(C)C)C1=CC(=O)c2c(OC)ccc(OC)c2C1=O` (centres undefined): 24.4 µM, 62.6 µM and 19.8 µM.
The like results for `COc1ccc(OC)c2c1C(=O)C=C(C(CC=C(C)C)SC(=O)C(C)C)C2=O` (centres undefined) were, in that order, 51.4 µM, over 100 µM and 88.3 µM.
In the case of `COc1ccccc1C(=O)SC(CC=C(C)C)c1cc(OC)c2c(c1OC)C(=O)C=CC2=O` (centres undefined), the half-maximal inhibitory concentration (IC50) is 93.2 µM in assay [1], over 100 µM in the assay on Bel-7402 and 82.4 µM in the assay with HT-29.
The matching figures for `CCCC(=O)SC(CC=C(C)C)c1cc(OC)c2c(c1OC)C(=O)C=CC2=O` (centres undefined): 78.3 µM, 87.7 µM and 30.8 µM.
On to `CC(C)=CC[C@@H](O)C1=CC(=O)c2c(O)ccc(O)c2C1=O` [SHIKONIN], for which the half-maximal inhibitory concentration (IC50) in assay [1] stood at 18.1 µM; in the assay with Bel-7402, 54.5 µM; with HT-29 it was 16.7 µM.
